According to patent US20100184684A1, “ANTIBACTERIAL AND ANTIFUNGAL PEPTIDES” (C3 JIAN, INC., priority 2009, published 2010):
≈ marks a conversion by molar mass, not a printed value. Peptide text beside a SMILES is read from it.

Legend:
T. rubrum = format: cell-based, Trichophyton rubrum
Method: (§1) In certain embodiments the MIC assays are performed as described herein in the Examples. For each organism, the media and growth conditions utilized is detailed in Table 8.
(§2) In certain embodiments the MIC assays are performed as follows: For each organism, the media and growth conditions utilized is detailed in Table 8.

B. subtilis = format: cell-based, Bacillus subtilis
Method: as §1, §2

S. mutans = format: cell-based, Streptococcus mutans
Method: as §1, §2

S. epidermidis = format: cell-based
Method: as §1, §2

A. niger = format: cell-based, Aspergillus niger
Method: as §1, §2

Row | MIC (T. rubrum) [µM] | MIC (B. subtilis) [µM] | MIC (S. mutans) [µM] | MIC (S. epidermidis) [µM] | MIC (A. niger) [µM] | SMILES
1 | 25 (≈ 56.9 µg/mL) | 25 (≈ 56.9 µg/mL) | 12.5 (≈ 28.5 µg/mL) | – | – | CC(C)[C@H](NC(=O)[C@H](CCCCN)NC(=O)[C@H](Cc1c[nH]c2ccccc12)NC(=O)CNC(=O)[C@@H](NC(=O)[C@H](CC(=O)O)NC(=O)[C@H](CO)NC(=O)[C@H](Cc1c[nH]cn1)NC(=O)CNC(=O)[C@@H]1CCCN1C(=O)[C@@H](NC(=O)[C@H](CCCNC(=N)N)NC(=O)[C@H](CO)NC(=O)[C@@H](N)Cc1c[nH]c2ccccc12)C(C)C)[C@@H](C)O)C(=O)N[C@@H](Cc1c[nH]c2ccccc12)C(=O)N[C@@H](Cc1c[nH]cn1)C(=O)N[C@@H](CCCNC(=N)N)C(=O)N[C@@H](Cc1c[nH]c2ccccc12)C(=O)O [PF-547] (H-WSRVPGHSDTGWKVWHRW-OH; N-terminus and C-terminus assumed)
2 | 50 (≈ 182 µg/mL) | 50 (≈ 182 µg/mL) | – | 50 (≈ 182 µg/mL) | – | CC[C@H](C)[C@H](NC(=O)[C@H](CO)NC(=O)[C@H](CC(N)=O)NC(=O)[C@H](CCCNC(=N)N)NC(=O)[C@H](CC(N)=O)NC(=O)[C@H](CC(C)C)NC(=O)[C@H](CCCCN)NC(=O)[C@H](CCCCN)NC(=O)[C@H](CCCCN)NC(=O)[C@@H](NC(=O)[C@@H]1CCCN1C(=O)[C@H](CO)NC(=O)[C@H](CCCNC(=N)N)NC(=O)[C@@H](NC(=O)[C@H](CCCNC(=N)N)NC(=O)[C@@H](NC(=O)[C@@H](N)CCSC)[C@@H](C)CC)[C@@H](C)CC)[C@@H](C)O)C(=O)N[C@@H](CO)C(=O)N[C@@H](CC(=O)O)C(=O)N[C@@H](Cc1c[nH]c2ccccc12)C(=O)N[C@@H](CCCCN)C(=O)N[C@@H](CO)C(=O)N[C@@H](CC(N)=O)C(=O)N[C@H](C(=O)N[C@@H](CO)C(=O)NCC(=O)N[C@@H](CCCNC(=N)N)C(=O)N[C@@H](Cc1ccccc1)C(=O)N[C@@H](Cc1ccccc1)C(=O)N[C@@H](Cc1ccc(O)cc1)C(=O)O)[C@@H](C)O [PF-283] (H-MIRIRSPTKKKLNRNSISDWKSNTSGRFFY-OH; N-terminus and C-terminus assumed)
3 | 50 (≈ 204 µg/mL) | – | 25 (≈ 102 µg/mL) | – | 50 (≈ 204 µg/mL) | CC[C@H](C)[C@H](NC(=O)[C@H](CCCNC(=N)N)NC(=O)[C@@H]1CCCN1C(=O)[C@H](CCC(=O)O)NC(=O)[C@H](CC(C)C)NC(=O)[C@@H]1CCCN1C(=O)[C@H](CC(=O)O)NC(=O)[C@@H](N)CC(C)C)C(=O)N[C@@H](C)C(=O)N1CCC[C@H]1C(=O)N1CCC[C@H]1C(=O)NCC(=O)N[C@@H](CC(=O)O)C(=O)N[C@@H](CCCNC(=N)N)C(=O)N[C@@H](CO)C(=O)N[C@@H](Cc1c[nH]cn1)C(=O)N[C@@H](CCC(N)=O)C(=O)NCC(=O)N[C@@H](C)C(=O)N1CCC[C@H]1C(=O)N[C@@H](C)C(=O)N[C@@H](CS)C(=O)N[C@@H](Cc1c[nH]cn1)C(=O)N[C@@H](CCCNC(=N)N)C(=O)N[C@@H](CC(=O)O)C(=O)N1CCC[C@H]1C(=O)N[C@@H](CC(C)C)C(=O)N[C@@H](CCCNC(=N)N)C(=O)NCC(=O)N[C@@H](CCCNC(=N)N)C(=O)N[C@@H](CO)C(=O)N[C@@H](C)C(=O)N[C@@H](CCCNC(=N)N)C(=O)N[C@@H](CC(=O)O)C(=O)N[C@@H](C)C(=O)N[C@@H](CCC(=O)O)C(=O)N[C@@H](CCCNC(=N)N)C(=O)O [PF-C019] (H-LDPLEPRIAPPGDRSHQGAPACHRDPLRGRSARDAER-OH; N-terminus and C-terminus assumed)
